# ChEMBL document CHEMBL1201862, “PubChem BioAssay data set” (2004)
#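 Protocol summary: plate cells (96-well), add compound at 5 concentrations, incubate 48 h, interpolate endpoints linearly. GI50: concentration for 50% inhibition of growth.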 Calls of active or inactive are those of the source. Rule as the data show it: active = GI50 up to about 1.1 µM and inactive = higher.
# Experiments:
# Test in all cases: NCI-60 cell line screen, 48 h
# T47D = test system: T47D
# HOP-92 = test system: HOP-92
# HL-60 = test system: HL-60
# Malme-3M = test system: Malme-3M
# DU-145 = test system: DU-145
# ACHN = test system: ACHN
# HCT-15 = test system: HCT-15
# RPMI-8226 = test system: RPMI-8226
# NCI-H460 = test system: NCI-H460
# OVCAR-5 = test system: OVCAR-5
# NCI-H23 = test system: NCI-H23
# SF-539 = test system: SF-539
# SF-268 = test system: SF-268
# OVCAR-8 = test system: OVCAR-8
# EKVX = test system: EKVX
# SF-295 = test system: SF-295
# CAKI-1 = test system: CAKI-1
# M14 = test system: M14
# CCRF-CEM = test system: CCRF-CEM
SMILES,GI50 (T47D),GI50 (HOP-92),GI50 (HL-60),GI50 (Malme-3M),GI50 (DU-145),GI50 (ACHN),GI50 (HCT-15) [µM],GI50 (RPMI-8226),GI50 (NCI-H460),GI50 (OVCAR-5),GI50 (NCI-H23),GI50 (SF-539),GI50 (SF-268),GI50 (OVCAR-8),GI50 (EKVX),GI50 (SF-295),GI50 (CAKI-1),GI50 (M14),GI50 (CCRF-CEM)
O=[N+]([O-])c1c(F)c(F)c2c(c1F)Nc1ccccc1S2,3.03 µM (inactive),15.2 µM (inactive),4.29 µM (inactive),5.55 µM (inactive),4.06 µM (inactive),15.7 µM (inactive),4.83,4.7 µM (inactive),6 µM (inactive),13 µM (inactive),2.63 µM (inactive),20.6 µM (inactive),2.49 µM (inactive),1.96 µM (inactive),6.44 µM (inactive),17.3 µM (inactive),3.99 µM (inactive),3.64 µM (inactive),2.69 µM (inactive)
CCCCCCOc1ccc(C(=O)NO)cc1,5.83 µM (inactive),13.9 µM (inactive),1.81 µM (inactive),11.3 µM (inactive),8.05 µM (inactive),5.07 µM (inactive),1.61,2.82 µM (inactive),4.68 µM (inactive),11.6 µM (inactive),7.03 µM (inactive),11.3 µM (inactive),5.64 µM (inactive),5.08 µM (inactive),15 µM (inactive),8.26 µM (inactive),4.44 µM (inactive),11.9 µM (inactive),0.362 µM (active)
COC(=O)c1c(O)ccc2c1c1c(n2Cc2ccccc2)C(=O)c2ccccc2C1=O,12.9 µM (inactive),13 µM (inactive),18.3 µM (inactive),28.8 µM (inactive),18.3 µM (inactive),12.2 µM (inactive),12.6,8.55 µM (inactive),10.7 µM (inactive),20.9 µM (inactive),15.3 µM (inactive),15.6 µM (inactive),14.8 µM (inactive),12.2 µM (inactive),20.6 µM (inactive),19.4 µM (inactive),18.7 µM (inactive),20.4 µM (inactive),15 µM (inactive)
O=c1[nH]c2nccn2c(Cl)c1Br,14.8 µM (inactive),24.7 µM (inactive),17.2 µM (inactive),20 µM (inactive),83.8 µM (inactive),29.9 µM (inactive),16.6,54.3 µM (inactive),24.7 µM (inactive),23.4 µM (inactive),17.9 µM (inactive),> 100 µM (inactive),23.2 µM (inactive),19.2 µM (inactive),19.7 µM (inactive),> 100 µM (inactive),22.4 µM (inactive),16.8 µM (inactive),20.5 µM (inactive)
CCCC1=C(OC)C(=O)c2c(C)cc(Cl)nc2C1=O,2.99 µM (inactive),5.79 µM (inactive),1.45 µM (inactive),3.02 µM (inactive),15.1 µM (inactive),6.92 µM (inactive),3.05,2.16 µM (inactive),13.7 µM (inactive),14.5 µM (inactive),4.11 µM (inactive),7.43 µM (inactive),7.08 µM (inactive),8.89 µM (inactive),7.66 µM (inactive),14.7 µM (inactive),8.97 µM (inactive),7 µM (inactive),0.286 µM (active)
CC1=NNC(=O)[C@H]2[C@H]1CCC1[C@@H]2CC[C@]2(C)[C@@H](O)CC[C@@H]12 (some centres undefined),> 100 µM (inactive),> 100 µM (inactive),> 100 µM (inactive),> 100 µM (inactive),> 100 µM (inactive),> 100 µM (inactive),> 100,> 100 µM (inactive),> 100 µM (inactive),> 100 µM (inactive),> 100 µM (inactive),> 100 µM (inactive),> 100 µM (inactive),> 100 µM (inactive),> 100 µM (inactive),> 100 µM (inactive),> 100 µM (inactive),> 100 µM (inactive),> 100 µM (inactive)
CN(C)/C=N/S(=O)(=O)c1nn2c(C=O)c(-c3ccc(-c4ccccc4)cc3)nc2s1,1.95 µM (inactive),2.65 µM (inactive),0.141 µM (active),1.32 µM (inactive),2.4 µM (inactive),1.57 µM (inactive),2.26,0.83 µM (active),5.51 µM (inactive),6.89 µM (inactive),1.78 µM (inactive),2.54 µM (inactive),2.1 µM (inactive),5.28 µM (inactive),5.89 µM (inactive),14.4 µM (inactive),1.31 µM (inactive),0.904 µM (active),0.145 µM (active)
CCCCCCCCCCCCCCCCCCNc1ccn(C2OC(COP(=O)(O)OCC3OC(n4cc(F)c(NCCCCCCCCCCCCCCCCCC)nc4=O)CC3O)C(O)C2O)c(=O)n1 (centres undefined),> 100 µM (inactive),19.3 µM (inactive),> 100 µM (inactive),42.6 µM (inactive),> 100 µM (inactive),> 100 µM (inactive),> 100,66.4 µM (inactive),> 100 µM (inactive),> 100 µM (inactive),> 100 µM (inactive),> 100 µM (inactive),> 100 µM (inactive),43.6 µM (inactive),> 100 µM (inactive),> 100 µM (inactive),> 100 µM (inactive),> 100 µM (inactive),> 100 µM (inactive)
CCc1c(-c2ccc(OC)cc2)c(=O)oc2cc(O)ccc12,30.6 µM (inactive),75.9 µM (inactive),16.7 µM (inactive),25.5 µM (inactive),33.2 µM (inactive),27.7 µM (inactive),25.9,18.6 µM (inactive),23.9 µM (inactive),> 100 µM (inactive),49.1 µM (inactive),44.1 µM (inactive),41.5 µM (inactive),49.1 µM (inactive),29.4 µM (inactive),35.6 µM (inactive),39.3 µM (inactive),23.9 µM (inactive),27.4 µM (inactive)
C/C(=N\NC(=S)N1CCCCC1)c1cccc(C)n1,< 0.01 µM (active),0.169 µM (active),< 0.01 µM (active),< 0.0197 µM (active),0.153 µM (active),< 0.012 µM (active),< 0.01,< 0.01 µM (active),< 0.0136 µM (active),0.149 µM (active),< 0.01 µM (active),< 0.0404 µM (active),< 0.0103 µM (active),< 0.01 µM (active),< 0.01 µM (active),0.056 µM (active),< 0.01 µM (active),0.0141 µM (active),< 0.0106 µM (active)
O=C(O)c1ccccc1C1CCCc2c1[nH]c1ccccc21 (centres undefined),11.4 µM (inactive),24 µM (inactive),33.2 µM (inactive),98.9 µM (inactive),> 100 µM (inactive),58.5 µM (inactive),44.4,28.8 µM (inactive),69.7 µM (inactive),> 100 µM (inactive),74.1 µM (inactive),88.7 µM (inactive),66.1 µM (inactive),75.7 µM (inactive),20.3 µM (inactive),57 µM (inactive),72.6 µM (inactive),53.5 µM (inactive),20 µM (inactive)
